Measured values published in article PMC7255801, “Disease-associated mutations in the human TRPM3 render the channel overactive via two distinct mechanisms” (eLife, 2020).

Target: T1, hTRPM3_1325 V990M (Homo sapiens, UniProt Q9HCF6, V1015M)
T1 construct: expressed in transfected cells; host or cells: Xenopus laevis oocytes (cRNA injection)
T1 sequence (Q9HCF6 1-1325 isoform Q9HCF6-10 V990M): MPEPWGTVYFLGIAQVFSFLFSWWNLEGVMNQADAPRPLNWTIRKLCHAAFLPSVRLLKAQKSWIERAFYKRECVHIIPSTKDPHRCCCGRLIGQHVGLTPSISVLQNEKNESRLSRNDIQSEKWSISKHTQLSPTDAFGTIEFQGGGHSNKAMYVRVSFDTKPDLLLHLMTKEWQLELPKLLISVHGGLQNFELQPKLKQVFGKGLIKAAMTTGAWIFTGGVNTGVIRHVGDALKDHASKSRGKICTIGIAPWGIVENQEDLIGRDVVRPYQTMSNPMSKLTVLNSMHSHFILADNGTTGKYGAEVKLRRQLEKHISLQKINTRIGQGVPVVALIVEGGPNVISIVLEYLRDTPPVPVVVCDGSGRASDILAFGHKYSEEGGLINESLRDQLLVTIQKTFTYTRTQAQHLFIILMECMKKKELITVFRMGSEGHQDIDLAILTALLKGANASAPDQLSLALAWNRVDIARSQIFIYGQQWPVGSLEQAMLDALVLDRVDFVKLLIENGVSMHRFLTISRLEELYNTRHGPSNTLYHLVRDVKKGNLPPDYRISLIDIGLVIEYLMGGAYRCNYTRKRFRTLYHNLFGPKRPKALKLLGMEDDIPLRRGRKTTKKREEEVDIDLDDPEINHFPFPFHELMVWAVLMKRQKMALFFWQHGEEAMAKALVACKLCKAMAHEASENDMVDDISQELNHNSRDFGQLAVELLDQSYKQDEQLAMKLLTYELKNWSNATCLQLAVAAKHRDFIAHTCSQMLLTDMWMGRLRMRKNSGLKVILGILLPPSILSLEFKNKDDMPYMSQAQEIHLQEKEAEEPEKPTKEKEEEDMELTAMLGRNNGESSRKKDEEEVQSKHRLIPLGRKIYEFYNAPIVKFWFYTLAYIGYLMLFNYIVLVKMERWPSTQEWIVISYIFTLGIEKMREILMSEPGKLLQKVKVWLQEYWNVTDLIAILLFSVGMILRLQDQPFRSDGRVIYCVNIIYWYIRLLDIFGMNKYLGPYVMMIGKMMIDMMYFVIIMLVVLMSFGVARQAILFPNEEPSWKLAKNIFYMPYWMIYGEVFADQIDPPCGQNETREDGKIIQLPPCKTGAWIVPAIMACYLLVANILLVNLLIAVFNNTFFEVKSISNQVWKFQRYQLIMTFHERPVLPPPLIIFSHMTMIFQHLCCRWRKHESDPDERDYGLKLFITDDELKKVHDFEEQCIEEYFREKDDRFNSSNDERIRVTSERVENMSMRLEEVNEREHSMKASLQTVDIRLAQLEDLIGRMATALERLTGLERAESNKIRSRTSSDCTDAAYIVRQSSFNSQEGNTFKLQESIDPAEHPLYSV
Experiment: Two electrode voltage clamp in Xenopus oocytes, V990M mutant
Type: cell-based
Details: V990M compared with P1090Q, 50 μM, 100 and −100 mV, room temperature (20–22°C)
Experimental: Xenopus laevis oocytes were prepared as described earlier ([Badheka et al., 2015]). All animal procedures were approved by the Institutional Animal Care and Use Committee at Rutgers New Jersey Medical School. In brief, frogs were anesthetized in 0.25% ethyl 3-aminobenzoate methanesulfonate solution (MS222; Sigma-Aldrich); bags of ovaries were removed surgically from the anesthetized frogs. Individual oocytes were obtained by overnight digestion at 16°C in 0.2–0.3 mg/ml type 1A collagenase (Sigma-Aldrich), dissolved in a solution containing 82.5 mM NaCl, 2 mM KCl, 1 mM MgCl2, and […] HEPES, pH 7.4 (OR2 solution). The next day the collagenase containing solution was discarded and the oocytes were washed multiple times with OR2 solution. […]
Two electrode voltage clamp experiments were performed as described ([Badheka et al., 2015]). In brief, oocytes were placed in extracellular solution (97 mM NaCl, 2 mM KCl, 1 mM MgCl2, and […] HEPES, pH 7.4), and currents were recorded with thin-wall inner filament– containing glass pipettes (World Precision Instruments) filled with 3 M KCl in 1% agarose. Currents were measured with a ramp protocol from −100 to 100 mV once every 0.5 s with a GeneClamp 500B amplifier and analyzed with the pClamp 9.0 software (Molecular Devices). […]

Inhibition of basal current: significantly larger inhibition
Structure (SMILES): CCC1(c2ccccc2)C(=O)NCNC1=O [primidone]
